Where two headings read alike, the source gives them in different places.
How the values were obtained:
Assay type in all cases: cell-based
AsPC-1 (K-Ras G12D) [1] = experiment: Potency assay: pERK in AsPC-1 cells; conditions: Homo sapiens
NCI-H358 (K-Ras G12C) = experiment: CellTiter-Glo cell viability assay, H358; conditions: Homo sapiens, NCI-H358, 120 h
Procedure, shortened: (§1)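 Luminescent viability readout on day 5, plates first brought to room temperature for ~30 min; compounds added straight to plated RAS-mutant cells. Values expressed as percent of mean DMSO signal, curves fitted with a four-parameter logistic model.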

AsPC-1 (K-Ras G12D) [2] = experiment: CellTiter-Glo cell viability assay, AsPC-1; conditions: Homo sapiens, ASPC1, 120 h
Procedure, shortened: as §1

[3] = ASPC1, read-out: pERK EC50 (AsPC-1 KRAS G12D)
[4] = read-out: H358 Cell Viability IC50, NCI-H358, K-Ras G12C, 5-day treatment
[5] = read-out: AsPC-1 Cell Viability IC50, AsPC-1, K-Ras G12D, 5-day treatment
[6] = ASPC1, AsPC-1 cells, K-Ras G12D, read-out: pERK EC50 (AsPC-1 KRAS G12D)
[7] = NCI-H358, K-Ras G12C, 5-day treatment, read-out: H358 Cell Viability IC50
[8] = AsPC-1, K-Ras G12D, 5-day treatment, read-out: AsPC-1 Cell Viability IC50

Compound	EC50 (AsPC-1 (K-Ras G12D) [1]; [3]) [nM]	IC50 (NCI-H358 (K-Ras G12C); [4]) [nM]	IC50 (AsPC-1 (K-Ras G12D) [2]; [5]) [nM]	EC50 (AsPC-1 (K-Ras G12D) [1]; [6]) [nM]	IC50 (NCI-H358 (K-Ras G12C); [7]) [nM]	IC50 (AsPC-1 (K-Ras G12D) [2]; [8]) [nM]
CCn1c(-c2cccnc2[C@H](C)OC)c2c3cc(ccc31)-c1cc(O)cc(c1)C[C@H](NC(=O)[C@H](C(C)C)N(C)C(=O)CN(C)C(=O)[C@@H]1CN1C1COC1)C(=O)N1CCC[C@H](N1)C(=O)OCC(C)(C)C2 (stereo partly drawn) [Compound 276]	< 5000	10 to 100	1000 to 10000			
CCn1c(-c2cccnc2[C@H](C)OC)c2c3cc(ccc31)-c1cc(O)cc(c1)C[C@H](NC(=O)[C@H](C(C)C)N(C)C(=O)CN(C)C(=O)[C@H]1CN1CC1COC1)C(=O)N1CCC[C@H](N1)C(=O)OCC(C)(C)C2 (stereo partly drawn) [Compound 277]	< 5000	10 to 100	100 to 1000			
CCn1c(-c2cccnc2[C@H](C)OC)c2c3cc(ccc31)-c1cc(O)cc(c1)C[C@H](NC(=O)[C@H](C(C)C)N(C)C(=O)CN(C)C(=O)[C@H]1CN1CC1(C)COC1)C(=O)N1CCC[C@H](N1)C(=O)OCC(C)(C)C2 (stereo partly drawn) [Compound 279]	< 5000	< 10	100 to 1000			
CCn1c(-c2cccnc2[C@H](C)OC)c2c3cc(ccc31)-c1cc(O)cc(c1)C[C@H](NC(=O)[C@H](C(C)C)N(C)C(=O)CN(C)C(=O)[C@@H]1CN1CC1(C)COC1)C(=O)N1CCC[C@H](N1)C(=O)OCC(C)(C)C2 (stereo partly drawn) [Compound 280]	< 5000	< 10	1000 to 10000			
CCn1c(-c2cccnc2[C@H](C)OC)c2c3cc(ccc31)-c1cc(O)cc(c1)C[C@H](NC(=O)[C@H](C(C)C)N(C)C(=O)CN(C)C(=O)[C@@H]1N[C@H]1C1COC1)C(=O)N1CCC[C@H](N1)C(=O)OCC(C)(C)C2 [Compound 283]	< 5000	10 to 100	100 to 1000			
CCn1c(-c2cccnc2[C@H](C)OC)c2c3cc(ccc31)-c1cc(O)cc(c1)C[C@H](NC(=O)[C@H](C(C)C)N(C)C(=O)CN(C)C(=O)[C@H]1C[C@@H]3N[C@@H]3C1)C(=O)N1CCC[C@H](N1)C(=O)OCC(C)(C)C2 [Compound 285]				< 5000	100 to 1000	10 to 100
CCn1c(-c2cccnc2[C@H](C)OC)c2c3cc(ccc31)-c1cc(O)cc(c1)C[C@H](NC(=O)[C@H](C(C)C)N(C)C(=O)CN(C)C(=O)[C@@H]1N[C@@H]1C1CCC1)C(=O)N1CCC[C@H](N1)C(=O)OCC(C)(C)C2 [Compound 287]	< 5000	10 to 100	100 to 1000			
CCn1c(-c2cccnc2[C@H](C)OC)c2c3cc(ccc31)-c1cc(O)cc(c1)C[C@H](NC(=O)[C@H](C(C)C)N(C)C(=O)CN(C)C(=O)[C@H]1N[C@H]1C1CCC1)C(=O)N1CCC[C@H](N1)C(=O)OCC(C)(C)C2 [Compound 288]	< 5000	10 to 100	100 to 1000			
CCn1c(-c2cccnc2[C@H](C)OC)c2c3cc(ccc31)-c1csc(n1)C[C@H](NC(=O)[C@H](C(C)C)N(C)C(=O)N1CCC[C@H](N(C)C(=O)[C@@H]3CN3)C1)C(=O)N1CCC[C@H](N1)C(=O)OCC(C)(C)C2 [Compound 292]				< 5000	10 to 100	1000 to 10000
CCn1c(-c2cccnc2[C@H](C)OC)c2c3cc(ccc31)-c1csc(n1)C[C@H](NC(=O)[C@H](C(C)C)N(C)C(=O)N(C)CC1CN(C(=O)[C@H]3CN3)C1)C(=O)N1CCC[C@H](N1)C(=O)OCC(C)(C)C2 [Compound 293]				< 5000	10 to 100	1000 to 10000
CCn1c(-c2cccnc2[C@H](C)OC)c2c3cc(ccc31)-c1csc(n1)C[C@H](NC(=O)[C@H](C(C)C)N(C)C(=O)N(C)CC1CN(C(=O)[C@@H]3CN3)C1)C(=O)N1CCC[C@H](N1)C(=O)OCC(C)(C)C2 [Compound 294]				< 5000	100 to 1000	1000 to 10000
CCn1c(-c2cccnc2[C@H](C)OC)c2c3cc(ccc31)-c1csc(n1)C[C@H](NC(=O)[C@H](C(C)C)N(C)C(=O)N(C)[C@H]1CCN(C(=O)[C@H]3CN3)C1)C(=O)N1CCC[C@H](N1)C(=O)OCC(C)(C)C2 [Compound 296]				< 5000	10 to 100	1000 to 10000
CCn1c(-c2cccnc2[C@H](C)OC)c2c3cc(ccc31)-c1csc(n1)C[C@H](NC(=O)[C@H](C(C)C)N(C)C(=O)N1CCN(C(=O)[C@H]3CN3)[C@@H](C)C1)C(=O)N1CCC[C@H](N1)C(=O)OCC(C)(C)C2 [Compound 297]				< 5000	10 to 100	100 to 1000
CCn1c(-c2cccnc2[C@H](C)OC)c2c3cc(ccc31)-c1csc(n1)C[C@H](NC(=O)[C@H](C(C)C)N(C)C(=O)N1CCN(C(=O)[C@@H]3CN3)[C@@H](C)C1)C(=O)N1CCC[C@H](N1)C(=O)OCC(C)(C)C2 [Compound 298]				< 5000	10 to 100	100 to 1000
CCn1c(-c2cccnc2[C@H](C)OC)c2c3cc(ccc31)-c1csc(n1)C[C@H](NC(=O)[C@H](C(C)C)N(C)C(=O)N1CCN(C(=O)[C@H]3CN3)[C@H](C)C1)C(=O)N1CCC[C@H](N1)C(=O)OCC(C)(C)C2 [Compound 299]				< 5000	< 10	100 to 1000
CCn1c(-c2cccnc2[C@H](C)OC)c2c3cc(ccc31)-c1csc(n1)C[C@H](NC(=O)[C@H](C(C)C)N(C)C(=O)N1CCN(C(=O)[C@@H]3CN3)[C@H](C)C1)C(=O)N1CCC[C@H](N1)C(=O)OCC(C)(C)C2 [Compound 300]				< 5000	10 to 100	100 to 1000
CCn1c(-c2cccnc2[C@H](C)OC)c2c3cc(ccc31)-c1csc(n1)C[C@H](NC(=O)[C@H](C(C)C)N(C)C(=O)N1CCN(C(=O)[C@H]3CN3)C[C@H]1C)C(=O)N1CCC[C@H](N1)C(=O)OCC(C)(C)C2 [Compound 301]				< 5000	< 10	100 to 1000
CCn1c(-c2cccnc2[C@H](C)OC)c2c3cc(ccc31)-c1csc(n1)C[C@H](NC(=O)[C@H](C(C)C)N(C)C(=O)N1CCN(C(=O)[C@@H]3CN3)C[C@H]1C)C(=O)N1CCC[C@H](N1)C(=O)OCC(C)(C)C2 [Compound 302]				< 5000	10 to 100	100 to 1000
CCn1c(-c2cccnc2[C@H](C)OC)c2c3cc(ccc31)-c1cc(O)cc(c1)C[C@H](NC(=O)[C@H](C1CCCC1)N(C)C(=O)CN(C)C(=O)[C@H]1N[C@H]1C1(C#N)CC1)C(=O)N1CCC[C@H](N1)C(=O)OCC(C)(C)C2 [Compound 316]				< 5000	10 to 100	1000 to 10000
CCn1c(-c2cccnc2[C@H](C)OC)c2c3cc(ccc31)-c1cc(O)cc(c1)C[C@H](NC(=O)[C@H](C1CCCC1)N(C)C(=O)CN(C)C(=O)[C@H]1[C@@H](C3CC3)N1CCCOC)C(=O)N1CCC[C@H](N1)C(=O)OCC(C)(C)C2 (stereo partly drawn) [Compound 317]				< 5000	10 to 100	10 to 100
CCn1c(-c2cccnc2[C@H](C)OC)c2c3cc(ccc31)-c1cc(cc(C(F)F)c1)C[C@H](NC(=O)[C@H](C1CCCC1)N(C)C(=O)CN(C)C(=O)[C@@H]1N[C@@H]1C1CC1)C(=O)N1CCC[C@H](N1)C(=O)OCC(C)(C)C2 [Compound 320]				< 5000	100 to 1000	100 to 1000
CCn1c(-c2cc(N3CCN(C)CC3)cnc2[C@H](C)OC)c2c3cc(ccc31)-c1cc(O)cc(c1)C[C@H](NC(=O)[C@H](C1CCCC1)N(C)C(=O)CN(C)C(=O)[C@@H]1N[C@@H]1C1CC1)C(=O)N1CCC[C@H](N1)C(=O)OCC(C)(C)C2 [Compound 325]				< 5000	< 10	< 10
CCn1c(-c2cccnc2[C@H](C)OC)c2c3cc(ccc31)-c1csc(n1)C[C@H](NC(=O)[C@H](C(C)C)N(C)C(=O)N1CCC(CN(C)C(=O)[C@H]3CN3)CC1)C(=O)N1CCC[C@H](N1)C(=O)OCC(C)(C)C2 [Compound 326]				< 5000	10 to 100	100 to 1000
CCn1c(-c2cccnc2[C@H](C)OC)c2c3cc(ccc31)-c1cc(O)cc(c1)C[C@H](NC(=O)[C@H](C1CCCC1)N(C)C(=O)[C@H](C)N(C)C(=O)[C@@H]1N[C@@H]1C1CC1)C(=O)N1CCC[C@H](N1)C(=O)OCC(C)(C)C2 [Compound 328]				< 5000	< 10	100 to 1000
CCn1c(-c2cnccc2COC)c2c3cc(ccc31)-c1cc(O)cc(c1)C[C@H](NC(=O)[C@H](C(C)C)N(C)C(=O)[C@H]1CCN(C(=O)[C@H]3CN3)C1)C(=O)N1CCC[C@H](N1)C(=O)OCC(C)(C)C2 [Example 1, (3S)-1-((R)-aziridine-2-carbonyl)-N-((2S)-1-(((6^3S,4S)-1^1-ethyl-2^5-hydroxy-1^2-(4-(methoxymethyl)pyridin-3-yl)-10,10-dimethyl-5,7-dioxo-6^1,6^2,6^3,6^4,6^5,6^6-hexahydro-1^1H-8-oxa-1(5,3)-indola-6(1,3)-pyridazina-2(1,3)-benzenacycloundecaphane-4-yl)amino)-3-methyl-1-oxobutan-2-yl)-N-methylpyrrolidine-3-carboxamide]				< 5000	< 10	1000 to 10000

Reference: US11739074B2, “Ras inhibitors” (Revolution Medicines, Inc., priority 2019, dated 2023)
